Experimental data as given in US4820694A, “Modifications of 3-O-demethylmycinose in macrocin and lactenocin” (priority 1986, dated 1989).
≈ marks a conversion by molar mass, not a printed value. Like-named read-outs stand apart in the source and are kept apart here.

Legend:
Assay type in all cases: cell-based
[1] = system: Haemophilus influenzae C.L.; test: standard agar-dilution MIC assay
Description: (§1) The MIC's in Table III were determined by standard agar-dilution assays. The MIC's in Table IV were obtained using conventional brothdilution microtiter tests.

[2] = system: Streptococcus Group D X66; test: standard agar-dilution MIC assay
Description: as §1

[3] = system: Staphylococcus aureus X400; test: standard agar-dilution MIC assay
Description: as §1

[4] = system: Streptococcus pyogenes C203; test: standard agar-dilution MIC assay
Description: as §1

[5] = system: Haemophilus influenzae 76; test: standard agar-dilution MIC assay
Description: as §1

[6] = system: Streptococcus Group D 9960; test: standard agar-dilution MIC assay
Description: as §1

[7] = system: Staphylococcus aureus V41; test: standard agar-dilution MIC assay
Description: as §1

[8] = system: Staphylococcus epidermidis EPI1; test: standard agar-dilution MIC assay
Description: as §1

[9] = system: Pseudomonas aeruginosa X239; test: standard agar-dilution MIC assay; details: agar-dilution
Description: as §1

[10] = system: Klebsiella pneumoniae X68; test: standard agar-dilution MIC assay; details: agar-dilution
Description: as §1

[11] = system: Staphylococcus aureus X1.1; test: standard agar-dilution MIC assay
Description: as §1

[12] = system: Staphylococcus epidermidis 222; test: standard agar-dilution MIC assay
Description: as §1

[13] = system: Streptococcus pneumoniae Park I; test: microbe, parasite or virus in culture
Description: as §1

[14] = system: Staphylococcus aureus S13E; test: microbe, parasite or virus in culture
Description: as §1

Mycoplasma synoviae 40A = test: broth-dilution microtiter MIC test; details: broth-dilution microtiter
Description: as §1

[15] = system: Pasteurella hemolytica 23C; test: broth-dilution microtiter MIC test; details: broth-dilution microtiter
Description: as §1

[16] = system: Staphylococcus aureus 19C; test: broth-dilution microtiter MIC test; details: broth-dilution microtiter
Description: as §1

[17] = system: Mycoplasma gallisepticum 36H; test: broth-dilution microtiter MIC test; details: broth-dilution microtiter
Description: as §1

[18] = system: Pasteurella hemolytica 41D; test: broth-dilution microtiter MIC test; details: broth-dilution microtiter
Description: as §1

[19] = system: Pasteurella hemolytica 22C; test: broth-dilution microtiter MIC test; details: broth-dilution microtiter
Description: as §1

[20] = system: Bordetella bronchiseptica; test: broth-dilution microtiter MIC test; details: broth-dilution microtiter
Description: as §1

[21] = system: Pasteurella multocida 40G; test: broth-dilution microtiter MIC test; details: broth-dilution microtiter
Description: as §1

[22] = system: Mycoplasma hyopneumoniae S5972; test: broth-dilution microtiter MIC test; details: broth-dilution microtiter
Description: as §1

[23] = system: Mycoplasma gallisepticum 29C; test: broth-dilution microtiter MIC test; details: broth-dilution microtiter
Description: as §1

[24] = system: Pasteurella multocida 17E; test: broth-dilution microtiter MIC test; details: broth-dilution microtiter; Bovine isolate
Description: as §1

[25] = system: Pasteurella multocida 60A; test: broth-dilution microtiter MIC test; details: broth-dilution microtiter; Avian isolate
Description: as §1

[26] = system: Pasteurella multocida 22A; test: broth-dilution microtiter MIC test; details: broth-dilution microtiter
Description: as §1

[27] = system: Pasteurella multocida 68C; test: broth-dilution microtiter MIC test; details: broth-dilution microtiter
Description: as §1

Streptococcus sp. 19F = test: broth-dilution microtiter MIC test; details: broth-dilution microtiter
Description: as §1

Mycoplasma hyorhinis 29E = test: broth-dilution microtiter MIC test; details: broth-dilution microtiter
Description: as §1

[28] = system: Mycoplasma gallisepticum 15E; test: broth-dilution microtiter MIC test; details: broth-dilution microtiter
Description: as §1

[29] = system: Streptococcus Group D 2041; test: standard agar-dilution MIC assay; details: GROUPD2041
Description: as §1

Escherichia coli EC14 = test: standard agar-dilution MIC assay
Description: as §1

[30] = Pseudomonas aeruginosa, X239, read-out: MIC
[31] = Klebsiella pneumoniae, X68, read-out: MIC
[32] = Haemophilus influenzae, agar-dilution, Ampicillin-sensitive strain, read-out: MIC
[33] = Haemophilus influenzae, 76, agar-dilution, Ampicillin-resistant strain, read-out: MIC
[34] = Staphylococcus epidermidis, EPI1
[35] = Staphylococcus epidermidis, 222

`CC[C@H]1OC(=O)C[C@@H](O)[C@H](C)[C@@H](O[C@@H]2O[C@H](C)[C@@H](O)[C@H](N(C)C)[C@H]2O)[C@@H](CC=O)C[C@@H](C)C(=O)/C=C/C(C)=C/[C@@H]1CO[C@@H]1O[C@H](C)[C@@H](OC(=O)COc2ccccc2)[C@@H](O)[C@H]1OC` [Compound 34, 4"-O-Phenoxyacetyl-lactenocin] showed an MIC ([1]; agar-dilution, Ampicillin-sensitive strain) of 4 µg/mL (≈ 4.48 µM), an MIC [2] of 1 µg/mL (≈ 1.12 µM) and an MIC ([3]; agar-dilution, Methicillin-resistant strain) of 1 µg/mL (≈ 1.12 µM). It also gave an MIC ([4]; agar-dilution) of 0.12 µg/mL (≈ 0.135 µM), an MIC ([5]; agar-dilution, Ampicillin-resistant strain) of 4 µg/mL (≈ 4.48 µM) and an MIC [6] of 1 µg/mL (≈ 1.12 µM). For the same compound, the MIC ([7]; agar-dilution, Penicillin-resistant strain) was 1 µg/mL (≈ 1.12 µM), the MIC ([8]; agar-dilution) was 1 µg/mL (≈ 1.12 µM) and the MIC [9] was “-- (Not active at 128 mcg/mL, the highest level tested)”. The MIC [10] was “-- (Not active at 128 mcg/mL, the highest level tested)”, the MIC ([11]; agar-dilution) was 1 µg/mL (≈ 1.12 µM) and the MIC ([12]; agar-dilution) was 0.5 µg/mL (≈ 0.561 µM). It also gave an MIC ([13]; agar-dilution) of 0.12 µg/mL (≈ 0.135 µM), an MIC ([14]; agar-dilution) of 1 µg/mL (≈ 1.12 µM) and an MIC (Mycoplasma synoviae 40A) of 0.097 µg/mL (≈ 0.109 µM). For the same compound, the MIC [15] was 25 µg/mL (≈ 28 µM), the MIC [16] was 0.78 µg/mL (≈ 0.874 µM) and the MIC [17] was 12.5 µg/mL (≈ 14 µM). It also gave an MIC [18] of 25 µg/mL (≈ 28 µM), an MIC [19] of 25 µg/mL (≈ 28 µM) and an MIC [20] of 50 µg/mL (≈ 56.1 µM). It also gave an MIC [21] of 12.5 µg/mL (≈ 14 µM), an MIC [22] of 0.097 µg/mL (≈ 0.109 µM) and an MIC [23] of no more than 0.048 µg/mL. For the same compound, the MIC [24] was 6.25 µg/mL (≈ 7.01 µM), the MIC [25] was 12.5 µg/mL (≈ 14 µM) and the MIC [26] was 12.5 µg/mL (≈ 14 µM). It also gave an MIC [27] of 12.5 µg/mL (≈ 14 µM), an MIC (Streptococcus sp. 19F) of 1.56 µg/mL (≈ 1.75 µM) and an MIC (Mycoplasma hyorhinis 29E) of 6.25 µg/mL (≈ 7.01 µM). It also gave an MIC [28] of 25 µg/mL (≈ 28 µM).
`CCC1OC(=O)CC(O)C(C)C(OC2OC(C)C(O)C(N(C)C)C2O)C(CCN2C[C@H](C)C[C@H](C)C2)CC(C)C(=O)C=CC(C)=CC1COC1OC(C)C=CC1OC` (stereo partly drawn) [Compound 45, 3",4"-Di(dehydrodeoxy)-20-deoxo-20-(cis-3,5-dimethylpiperidin-1-yl)-lactenocin] gave an MIC ([1]; Haemophilus influenzae) of 1 µg/mL (≈ 1.22 µM), an MIC ([2]; read-out: MIC) of 0.25 µg/mL (≈ 0.304 µM) and an MIC ([3]; Staphylococcus aureus, X400, agar-dilution, Methicillin-resistant strain, read-out: MIC) of 0.06 µg/mL (≈ 0.0731 µM). It also gave an MIC [29] of 0.5 µg/mL (≈ 0.609 µM), an MIC ([4]; Streptococcus pyogenes, C203) of 0.06 µg/mL (≈ 0.0731 µM) and an MIC ([5]; Haemophilus influenzae, 76) of 1 µg/mL (≈ 1.22 µM). It also gave an MIC (Escherichia coli EC14) of 64 µg/mL (≈ 77.9 µM), an MIC ([7]; Staphylococcus aureus, V41, agar-dilution, Penicillin-resistant strain, read-out: MIC) of 0.12 µg/mL (≈ 0.146 µM) and an MIC [9, 30] greater than 128 µg/mL. For the same compound, the MIC [10, 31] was 128 µg/mL (≈ 156 µM), the MIC ([11]; Staphylococcus aureus, X1.1, agar-dilution, read-out: MIC) was 0.12 µg/mL (≈ 0.146 µM) and the MIC ([12]; Staphylococcus epidermidis, 222, agar-dilution, read-out: MIC) was 0.12 µg/mL (≈ 0.146 µM). For the same compound, the MIC ([13]; Streptococcus pneumoniae) was 0.06 µg/mL (≈ 0.0731 µM) and the MIC ([14]; Staphylococcus aureus, S13E) was 0.06 µg/mL (≈ 0.0731 µM).
Compound `CCC1OC(=O)CC(O)C(C)C(OC2OC(C)C(O)C(N(C)C)C2O)C(CCOc2ccccc2)CC(C)C(=O)C=CC(C)=CC1COC1OC(C)C2OC(C)(C)OC2C1OC` (stereo not drawn) [Compound 57, 20-DH-20-O-Phenyl-lactenocin-3",4"-isopropylidene Ketal] has an MIC [1, 32] greater than 128 µg/mL, an MIC ([2]; read-out: MIC) of 32 µg/mL (≈ 36.5 µM) and an MIC ([3]; Staphylococcus aureus, X400) of 4 µg/mL (≈ 4.57 µM). It also gave an MIC [29] of 64 µg/mL (≈ 73.1 µM), an MIC ([4]; Streptococcus pyogenes, C203) of 2 µg/mL (≈ 2.28 µM) and an MIC [5, 33] greater than 128 µg/mL. It also gave an MIC (Escherichia coli EC14; agar-dilution, read-out: MIC) greater than 128 µg/mL, an MIC ([7]; Staphylococcus aureus, V41) of 4 µg/mL (≈ 4.57 µM) and an MIC [8, 34] of 4 µg/mL (≈ 4.57 µM). For the same compound, the MIC [9, 30] was greater than 128 µg/mL, the MIC [10, 31] was greater than 128 µg/mL and the MIC ([11]; Staphylococcus aureus, X1.1) was 4 µg/mL (≈ 4.57 µM). The MIC [12, 35] was 2 µg/mL (≈ 2.28 µM), the MIC ([13]; Streptococcus pneumoniae) was 8 µg/mL (≈ 9.13 µM) and the MIC ([14]; Staphylococcus aureus, S13E) was 4 µg/mL (≈ 4.57 µM).
`CCC1OC(=O)CC(O)C(C)C(OC2OC(C)C(O)C(N(C)C)C2O)C(CCOc2ccccc2)CC(C)C(=O)C=CC(C)=CC1COC1OC(C)C(OC(C)=O)C(OC(C)=O)C1OC` (stereo not drawn) [Compound 41, 3",4"-Di-O-acetyl-20-DH-20-O-phenyl-lactenocin] gave an MIC [1, 32] greater than 128 µg/mL, an MIC ([2]; read-out: MIC) of 64 µg/mL (≈ 69.6 µM) and an MIC ([3]; Staphylococcus aureus, X400) of 16 µg/mL (≈ 17.4 µM). It also gave an MIC ([29]; agar-dilution, read-out: MIC) of 128 µg/mL (≈ 139 µM), an MIC ([4]; Streptococcus pyogenes, C203) of 16 µg/mL (≈ 17.4 µM) and an MIC [5, 33] greater than 128 µg/mL. It also gave an MIC (Escherichia coli EC14; agar-dilution, read-out: MIC) greater than 128 µg/mL, an MIC ([7]; Staphylococcus aureus, V41) of 16 µg/mL (≈ 17.4 µM) and an MIC [8, 34] of 16 µg/mL (≈ 17.4 µM). It also gave an MIC [9, 30] greater than 128 µg/mL, an MIC [10, 31] greater than 128 µg/mL and an MIC ([11]; Staphylococcus aureus, X1.1) of 16 µg/mL (≈ 17.4 µM). For the same compound, the MIC [12, 35] was 8 µg/mL (≈ 8.69 µM), the MIC ([13]; Streptococcus pneumoniae) was 16 µg/mL (≈ 17.4 µM) and the MIC ([14]; Staphylococcus aureus, S13E) was 16 µg/mL (≈ 17.4 µM).
